Results on four molecules are retold here after publication PMC8911752, “The Synthesis and Initial Evaluation of MerTK Targeted PET Agents” (Molecules, 2022).

The first experiment has as its target T1, MerTK (Homo sapiens, UniProt Q12866).
T1 sequence (Q12866 21-999): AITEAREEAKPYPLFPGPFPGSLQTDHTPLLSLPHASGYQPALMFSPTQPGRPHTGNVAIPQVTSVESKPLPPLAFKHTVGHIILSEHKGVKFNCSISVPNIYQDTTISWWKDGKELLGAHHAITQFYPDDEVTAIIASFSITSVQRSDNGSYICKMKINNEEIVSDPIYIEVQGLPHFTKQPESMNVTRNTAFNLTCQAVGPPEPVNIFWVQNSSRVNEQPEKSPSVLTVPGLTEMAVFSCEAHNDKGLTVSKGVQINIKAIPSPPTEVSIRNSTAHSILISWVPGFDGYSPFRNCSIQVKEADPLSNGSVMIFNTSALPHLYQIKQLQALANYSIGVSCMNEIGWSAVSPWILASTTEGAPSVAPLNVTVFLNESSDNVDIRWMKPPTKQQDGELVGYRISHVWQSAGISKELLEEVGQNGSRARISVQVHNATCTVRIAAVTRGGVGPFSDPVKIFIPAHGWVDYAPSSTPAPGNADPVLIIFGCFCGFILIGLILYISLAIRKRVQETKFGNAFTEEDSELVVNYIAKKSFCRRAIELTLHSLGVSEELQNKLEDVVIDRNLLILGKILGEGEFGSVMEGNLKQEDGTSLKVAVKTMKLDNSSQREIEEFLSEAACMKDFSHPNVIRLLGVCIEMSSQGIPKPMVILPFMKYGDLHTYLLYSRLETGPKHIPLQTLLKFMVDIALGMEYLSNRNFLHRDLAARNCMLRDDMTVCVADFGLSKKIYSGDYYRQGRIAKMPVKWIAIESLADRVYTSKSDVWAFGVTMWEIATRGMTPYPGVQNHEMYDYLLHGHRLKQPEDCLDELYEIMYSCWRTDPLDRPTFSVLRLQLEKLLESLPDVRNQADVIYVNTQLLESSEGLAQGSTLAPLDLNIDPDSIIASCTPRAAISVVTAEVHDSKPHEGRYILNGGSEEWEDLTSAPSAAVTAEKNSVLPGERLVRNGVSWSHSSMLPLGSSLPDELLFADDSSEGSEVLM
Kind of experiment: Microcapillary electrophoresis (MCE) kinase assay, MerTK. It is filed as biochemical. The conditions noted are these: MCE assay, ATP at Km; mean of two or more independent assays. As to the method:
(§1) The inhibitory activities of standards towards MerTK, Axl, Tyro3 and Flt3 were determined in our in-house microcapillary electrophoresis (MCE) assays.
(§2) Microcapillary Electrophoresis (MCE) Assays were performed with literature method. […] All reactions were terminated by addition of 20 µL of 70 mM EDTA. After an 180 min incubation, phosphorylated and unphosphorylated substrate peptides (Table 2) were separated in buffer supplemented with 1 x CR-8 on a LabChip EZ Reader equipped with a 12-sipper chip. Data were analyzed using EZ Reader software.
Regarding `C[C@H](Nc1ncc2c(C3CCN(C(=S)Nc4ccc(CC5CN(CC(=O)O)CCN(CC(=O)O)CCN5CC(=O)O)cc4)CC3)cn([C@H]3CC[C@H](O)CC3)c2n1)c1ccccc1` (stereo partly drawn) [MerTK-4], the half-inhibitory concentration (IC50) (as a rule, the concentration that gives 50% inhibition) was 0.013 µM.
`C[C@H](Nc1ncc2c(C3CCN(C)CC3)cn([C@H]3CC[C@H](O)CC3)c2n1)c1ccccc1` [MerTK-2]: the IC50 worked out at 0.061 µM.
For `CCC[C@H](C)Nc1ncc2c(C3CCN(CCF)CC3)cn([C@H]3CC[C@H](O)CC3)c2n1` [MerTK-5], half-maximal inhibition (IC50) required 0.015 µM.
Same read-out and setting: for `C[C@H](Nc1ncc2c(C3CCN(CCF)CC3)cn([C@H]3CC[C@H](O)CC3)c2n1)c1ccccc1` [MerTK-6] the value was 0.037 µM.

The same experiment, now with this note: MerTK versus Axl, Tyro3, Flt3 in MCE assays.
Regarding `C[C@H](Nc1ncc2c(C3CCN(C)CC3)cn([C@H]3CC[C@H](O)CC3)c2n1)c1ccccc1` [MerTK-2], the “selectivity over Axl, Tyro3 and Flt3” value is “Good selectivity”.
In the case of `CCC[C@H](C)Nc1ncc2c(C3CCN(CCF)CC3)cn([C@H]3CC[C@H](O)CC3)c2n1` [MerTK-5], the “selectivity over Axl, Tyro3 and Flt3” value was “good selectivity”.
Consider `C[C@H](Nc1ncc2c(C3CCN(CCF)CC3)cn([C@H]3CC[C@H](O)CC3)c2n1)c1ccccc1` [MerTK-6], for which the “selectivity over Axl, Tyro3 and Flt3” value is given as “good selectivity”.

The next experiment has as its target T2, Axl (Homo sapiens, UniProt P30530).
T2 sequence (P30530 26-894): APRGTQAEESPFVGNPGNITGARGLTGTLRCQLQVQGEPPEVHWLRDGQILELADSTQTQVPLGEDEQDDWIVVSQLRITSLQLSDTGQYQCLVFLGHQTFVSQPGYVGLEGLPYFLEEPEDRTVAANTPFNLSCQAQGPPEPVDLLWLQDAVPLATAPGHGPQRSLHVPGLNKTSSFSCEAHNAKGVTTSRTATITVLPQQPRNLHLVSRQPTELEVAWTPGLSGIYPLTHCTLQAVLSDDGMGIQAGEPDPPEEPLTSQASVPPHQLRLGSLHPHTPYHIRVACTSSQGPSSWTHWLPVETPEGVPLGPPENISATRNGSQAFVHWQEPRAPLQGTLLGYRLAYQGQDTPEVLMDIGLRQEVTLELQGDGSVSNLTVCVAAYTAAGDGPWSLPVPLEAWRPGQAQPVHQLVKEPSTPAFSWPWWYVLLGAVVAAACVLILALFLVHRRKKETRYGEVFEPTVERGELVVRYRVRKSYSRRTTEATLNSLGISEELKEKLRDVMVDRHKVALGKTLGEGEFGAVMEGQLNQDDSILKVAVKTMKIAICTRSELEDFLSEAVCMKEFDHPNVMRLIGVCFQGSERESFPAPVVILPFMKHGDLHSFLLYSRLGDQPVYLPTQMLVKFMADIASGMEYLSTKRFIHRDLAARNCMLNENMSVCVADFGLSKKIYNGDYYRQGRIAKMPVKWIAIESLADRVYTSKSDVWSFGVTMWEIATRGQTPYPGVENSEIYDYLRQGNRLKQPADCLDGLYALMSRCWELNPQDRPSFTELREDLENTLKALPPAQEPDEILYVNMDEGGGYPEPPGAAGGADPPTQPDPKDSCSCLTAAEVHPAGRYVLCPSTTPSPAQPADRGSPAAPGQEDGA
Kind of experiment: Microcapillary electrophoresis (MCE) kinase assay, Axl. The experiment is classed as biochemical. The conditions noted are these: ATP at Km, mean of two or more independent assays. The protocol:
as §1, §2
Turning to `C[C@H](Nc1ncc2c(C3CCN(C(=S)Nc4ccc(CC5CN(CC(=O)O)CCN(CC(=O)O)CCN5CC(=O)O)cc4)CC3)cn([C@H]3CC[C@H](O)CC3)c2n1)c1ccccc1` (stereo partly drawn) [MerTK-4], half-maximal inhibition (IC50) required 4.1 µM.
Still for that read-out and setting: for `C[C@H](Nc1ncc2c(C3CCN(C)CC3)cn([C@H]3CC[C@H](O)CC3)c2n1)c1ccccc1` [MerTK-2] the value was 1.7 µM; for `CCC[C@H](C)Nc1ncc2c(C3CCN(CCF)CC3)cn([C@H]3CC[C@H](O)CC3)c2n1` [MerTK-5], 1.1 µM; for `C[C@H](Nc1ncc2c(C3CCN(CCF)CC3)cn([C@H]3CC[C@H](O)CC3)c2n1)c1ccccc1` [MerTK-6], 2.1 µM.

In the next experiment the target is T3, Tyro3 (Homo sapiens, UniProt Q06418).
T3 sequence (Q06418 41-890): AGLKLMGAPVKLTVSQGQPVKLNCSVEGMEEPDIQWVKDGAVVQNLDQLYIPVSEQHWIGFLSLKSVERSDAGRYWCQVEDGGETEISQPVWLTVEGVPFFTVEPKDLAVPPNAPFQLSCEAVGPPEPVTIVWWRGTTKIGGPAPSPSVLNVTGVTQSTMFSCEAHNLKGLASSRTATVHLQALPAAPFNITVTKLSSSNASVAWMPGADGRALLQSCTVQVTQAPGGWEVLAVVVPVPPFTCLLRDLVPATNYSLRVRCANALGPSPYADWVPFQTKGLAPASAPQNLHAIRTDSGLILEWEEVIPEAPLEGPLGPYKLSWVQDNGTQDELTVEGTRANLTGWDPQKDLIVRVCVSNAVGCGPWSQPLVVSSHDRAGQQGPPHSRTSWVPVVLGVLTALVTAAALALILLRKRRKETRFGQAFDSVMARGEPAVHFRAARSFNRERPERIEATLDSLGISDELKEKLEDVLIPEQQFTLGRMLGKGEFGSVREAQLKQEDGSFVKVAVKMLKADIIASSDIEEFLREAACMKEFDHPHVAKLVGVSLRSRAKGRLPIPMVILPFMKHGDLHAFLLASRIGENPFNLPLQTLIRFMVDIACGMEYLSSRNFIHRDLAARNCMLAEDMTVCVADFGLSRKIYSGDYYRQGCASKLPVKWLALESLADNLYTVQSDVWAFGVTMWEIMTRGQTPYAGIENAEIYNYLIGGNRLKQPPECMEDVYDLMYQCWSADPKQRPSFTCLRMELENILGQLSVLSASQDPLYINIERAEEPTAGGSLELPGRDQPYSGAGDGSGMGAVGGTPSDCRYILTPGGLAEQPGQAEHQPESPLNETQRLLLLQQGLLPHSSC
Kind of experiment: Microcapillary electrophoresis (MCE) kinase assay, Tyro3. It is filed as biochemical. The conditions noted are these: ATP at Km, mean of two or more independent assays. As to the method: as §1, §2
Turning to `C[C@H](Nc1ncc2c(C3CCN(C(=S)Nc4ccc(CC5CN(CC(=O)O)CCN(CC(=O)O)CCN5CC(=O)O)cc4)CC3)cn([C@H]3CC[C@H](O)CC3)c2n1)c1ccccc1` (stereo partly drawn) [MerTK-4], inhibition was half-maximal at 0.18 µM (IC50).
Same read-out and setting: for `C[C@H](Nc1ncc2c(C3CCN(C)CC3)cn([C@H]3CC[C@H](O)CC3)c2n1)c1ccccc1` [MerTK-2] the value was 0.18 µM; for `CCC[C@H](C)Nc1ncc2c(C3CCN(CCF)CC3)cn([C@H]3CC[C@H](O)CC3)c2n1` [MerTK-5], 0.19 µM.
Still for that read-out and setting: for `C[C@H](Nc1ncc2c(C3CCN(CCF)CC3)cn([C@H]3CC[C@H](O)CC3)c2n1)c1ccccc1` [MerTK-6] the value was 0.12 µM.
